Results reported in patent US5686458A, “Quinazoline deriviates for treating peptic ulcer” (Yuhan Corporation, priority 1992, dated 1997).
Counter-ions that a name gives are not always drawn.

Columns and labels:
[1] = target: T1, Proton Pump (H^+ /K^+ ATPase) (Oryctolagus cuniculus, UniProt P27112); assay: Inhibition of Proton Pump (H+/K+ ATPase) Activity, in vitro enzyme reaction (Experiment 1); format: biochemical, New Zealand white rabbit; conditions: for Effect ratio: IC50 of Omeprazole / IC50 of test compound; for IC50: K+-stimulated H+/K+ ATPase activity, rabbit gastric microsomes, pH 7.2, 37° C., 15 min prereaction, 30 min reaction, read-out: IC50 of test compound, inhibition (50%) of the proton pump activity
T1 construct: The microsomes thus obtained were used as an enzyme source of the in vitro enzyme reaction study of proton pump; from tissue; host or cells: rabbit stomach, mucosal scrapings, microsomes (180,000 g pellet)
Description: A New Zealand white rabbit was killed by blowing its head and the stomach was taken out. The contents of the stomach were removed and the stomach walls were washed with was saline. The inner wall of the stomach was scratched out with a slide glass and the cells thus obtained were homogenized in 0.25M sucrose buffer by means of a Teflon-glass homogenizer. The homogenous solution was centrifuged at 10,000 g for 10 minutes and the supernatant was further centrifuged at 20,000 g for 20 minutes. The supernatant thus obtained was centrifuged at an ultra-high speed of 180,000 g for 1 hour. The pellets precipitated were collected by discarding the supernatant and suspended in 50 mM Tris-HCl buffer having pH 7.2. The suspension was dialyzed twice with the same buffer(of 1,000 times volume) for 3 hours and stored into liquid nitrogen.
The above centrifugation and dialysis were carried out at 4° C. The microsomes thus obtained were used as an enzyme source of the in vitro enzyme reaction study of proton pump.
The inhibitory effects of proton pump activity by the compounds of the present invention were measured by the in vitro enzyme reaction study. The proton pump activity stimulated by Mg^++ was used as a negative comparative group, and the activity stimulated by Mg^++ and K^+ was used as a positive comparative group. The comparative compound was omeprazole.
Test tubes were divided into 4 groups: Group 1 as negative comparative group(n=3), Group 2 as positive comparative group(n=3), Group 3(n=5) to be administered with the compound of the present invention and Group 4(n=5) to be administered with the comparative compound. The inhibitory effects of proton pump activity of Groups 3 and 4 were measured by employing the compound prepared in Example 34 and omeprazole, respectively, each of which was dissolved in dimethylsulfoxide at 5 different concentrations.
To each of Groups 1, 2, 3 and 4, were added 0.1 ml of magnesium chloride(40 mM) dissolved in 50 mM Tris-HCl buffer (pH 7.2) and […] of the enzyme source prepared in Experiment 1-1. Then, 0.1 ml of potassium chloride(500 mM) and 0.1 ml of ammonium chloride(100 mM) dissolved in 50 mM Tris-HCl buffer(pH 7.2) were added to all groups except for Group 1.
0.1 ml of dimethylsulfoxide was added to each of Groups 1 and 2; and to Group 3 was added 0.01 ml of the solution in which the compound prepared in Example 34 was dissolved in dimethylsulfoxide at 5 different concentrations. To Group 4, 0.01 ml of the solution prepared by dissolving omprazole in dimethylsulfoxide at 5 different concentrations(37.6, 21.4, 12.2, 7.0 and 4.0 μM) was added. 50 mM Tris-HCl buffer was added thereto so as to make the total volume 0.4 ml.
Thereafter, the test tubes of each Group were placed at 37° C. for 15 minutes for the prereaction. 0.1 ml of ATP solution(33.3 mM), which was prepared by adding Tris-ATP 50 mM to Tris-HCl buffer having pH 7.2, was added until the reaction volume became 0.5 ml. The final concentrations of MgCl2, KCl, NH4 Cl, ATP, enzyme and Tris-HCl were 8 mM, 100 mM, 20 mM, 6.7 mM, 100μg/ml and 50 mM, respectively. After the reaction was carried out at 37° C. for 30 minutes, 25% cold trichloroacetic acid was added to terminate the enzyme reaction. The released inorganic phosphate was measured by an automatic analyzer(SBA 300, Gilford).
The difference between Group 1 and Group 2 represents the proton pump activity activated by K^+ only. The inhibition percentages of Groups 3 and 4 were calculated from Litchfield-wilcoxon equation[see J. Pharmacol. Exptl. Ther. 96, 99(1949)]. The concentrations of the test compounds which inhibit 50% of the proton pump activity are represented as IC50 in Table 1.

gastric secretion = assay: Inhibition of Gastric Secretion, pylorus-ligated rats (Experiment 2); format: in vivo, Sprague-Dawley rats
Description: In accordance with the method disclosed in Shay, H., et al., Gastroenterology 5, 43-61(1945), Experiment 2 was carried out.
Sprague-Dawley rats having a body weight of 170±10 g were divided into 3 groups(n=5) and deprived of food for 24 hours before the experiment with free access to water. Under ether anesthesia, the abdomen was incised, and the pylorus was ligated. As a comparative group, Group 1 was administered intraduodenally in a volume of 0.5 ml/200 g of 30% aqueous polyethylene glycol 400 solution. Groups 2 and 3 were administered intraduodenally with the compound of Example 34 and omeprazole, respectively, each of which was suspended in 30% aqueous polyethylene glycol 400 solution at a concentration of 20 mg/kg. After closing the abdominal cavity, the rats were placed for 5 hours and then killed by cervical dislocation. The stomach was extracted to obtain gastric juice.
The gastric juice was centrifuged at 1,000 g to remove precipitates. The amount and acidity of the gastric juice were measured. Relative volumes, relative acid concentrations and relative acid outputs of the test compounds were calculated from equations(I), (II) and (III) and the results are shown in Table 2.
(I) = the average amount of gastric juice of Group 1 - the
average amount of gastric juice of Group 2)/(the average
amount of gastric juice of Group 1 - the average amount
of gastric juice of Group 3)
Relative acid concentration
(II) = (the average acidity of Group 1 - the average
acidity of Group 2)/(the average acidity of Group 1 - the average
(III) = (the total amount of acid output of Group 1 - the
total amount of acid output of Group 2)/(the total amount of acid
output of Group 1 - the total amount of acid output of Group

[2] = relative to omeprazole (equation III), 20 mg/kg intraduodenally, pylorus-ligated rats, 5 hours

T1 sequence (P27112 whole entry): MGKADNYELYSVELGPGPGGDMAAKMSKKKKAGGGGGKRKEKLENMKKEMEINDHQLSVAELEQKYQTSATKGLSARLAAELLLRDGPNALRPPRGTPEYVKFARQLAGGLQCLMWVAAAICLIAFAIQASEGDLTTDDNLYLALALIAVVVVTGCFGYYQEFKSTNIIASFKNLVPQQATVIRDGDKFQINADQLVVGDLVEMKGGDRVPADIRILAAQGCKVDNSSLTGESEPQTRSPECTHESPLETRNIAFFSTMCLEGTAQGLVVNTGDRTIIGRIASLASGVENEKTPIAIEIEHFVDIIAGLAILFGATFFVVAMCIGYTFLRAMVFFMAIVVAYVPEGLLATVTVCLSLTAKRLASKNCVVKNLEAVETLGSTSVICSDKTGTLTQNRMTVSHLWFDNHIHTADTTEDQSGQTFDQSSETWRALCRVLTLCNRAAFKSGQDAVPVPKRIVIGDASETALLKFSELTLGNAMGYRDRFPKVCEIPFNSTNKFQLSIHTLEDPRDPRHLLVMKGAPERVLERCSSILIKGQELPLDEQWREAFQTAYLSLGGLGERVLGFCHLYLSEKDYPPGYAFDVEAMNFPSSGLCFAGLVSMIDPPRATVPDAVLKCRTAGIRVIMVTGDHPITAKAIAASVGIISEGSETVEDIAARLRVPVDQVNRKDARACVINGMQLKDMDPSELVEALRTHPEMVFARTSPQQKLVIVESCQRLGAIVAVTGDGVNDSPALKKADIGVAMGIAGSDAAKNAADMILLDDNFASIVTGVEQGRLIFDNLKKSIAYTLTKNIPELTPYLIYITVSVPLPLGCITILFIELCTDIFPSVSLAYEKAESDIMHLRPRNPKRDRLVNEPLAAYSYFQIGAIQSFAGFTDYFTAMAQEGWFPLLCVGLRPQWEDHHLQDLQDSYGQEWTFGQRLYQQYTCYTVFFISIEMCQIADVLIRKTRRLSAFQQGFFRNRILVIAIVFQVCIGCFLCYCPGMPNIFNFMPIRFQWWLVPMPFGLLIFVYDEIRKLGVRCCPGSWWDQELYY
T1 sequence (P18597 whole entry partner): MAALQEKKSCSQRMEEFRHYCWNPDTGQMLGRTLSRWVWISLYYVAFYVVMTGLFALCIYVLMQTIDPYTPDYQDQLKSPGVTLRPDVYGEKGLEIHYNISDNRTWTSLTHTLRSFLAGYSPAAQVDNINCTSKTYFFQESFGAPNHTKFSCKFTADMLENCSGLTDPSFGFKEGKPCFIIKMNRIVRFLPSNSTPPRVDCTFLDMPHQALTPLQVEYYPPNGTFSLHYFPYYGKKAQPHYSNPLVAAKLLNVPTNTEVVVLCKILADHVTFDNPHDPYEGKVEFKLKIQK

Compound | Effect ratio [1] | IC50 [1] [µM] | Relative Acid Output (gastric secretion; [2]) | Relative Acid Output (gastric secretion; intraduodenal, 20 mg/kg, 5 h)
Cc1cc(F)ccc1Nc1nc(N2CCc3ccccc3C2C)c2cccc(OCCO)c2n1 (stereo not drawn) [Example 37, 8-(2-Hydroxyethyloxy)-2-(4-Fluoro-2-Methylphenylamino)-4-(1-Methyl-1,2,3,4-Tetrahydroisoquinoline-2-Yl)Quinazoline] | ~ 0.60 | ~12.5 | 0.37 | 
CCOc1cccc2c(N3CCc4ccccc4C3C)nc(Nc3ccc(F)cc3C)nc12.Cl (stereo not drawn) [Example 38, 2-(4-Fluoro-2-Methylphenyl-Amino)-8-Ethoxy-4-(1-Methyl-1,2,3,4-Tetrahydroisoquinoline-2-Yl)Quinazoline Hydrochloride] | 1.67 | 1.2 | 0.83 | 
CSCOc1cccc2c(N3CCc4ccccc4C3C)nc(Nc3ccc(F)cc3C)nc12 (stereo not drawn) [Example 39, 2-(4-Fluoro-2-Methylphenyl-Amino-8-(Methylthiomethyloxy)-4-(1-Methyl-1,2,3,4-Tetrahydroisoquinoline-2-Yl)Quinazoline Hydrochloride] | 0.70 | 4 | 0.57 | 
COc1cccc2c(N3CCc4ccccc4C3C)nc(N(C)c3ccccc3)nc12.Cl (stereo not drawn) [Example 40, 8-Methoxy-2-(N-Methylphenyl-Amino)-4-(1-Methyl-1,2,3,4-Tetrahydroisoquinoline-2-Yl) Quinazoline Hydrochloride] | 8.15 | 1.3 | 0.82 | 
COc1cccc2c(N3CCc4ccccc4C3C)nc(N(C)c3ccc(F)cc3)nc12.Cl (stereo not drawn) [Example 41, 8-Methoxy-2-(4-Fluoro-N-methyl-Phenylamino)-4-(1-Methyl-1,2,3,4-Tetrahydroisoquinoline-2-Yl)Quinazoline Hydrochloride] | 2.00 | 3.8 | 0.48 | 
COc1cccc2c(N3CCc4ccccc4C3C(F)(F)F)nc(Nc3ccc(F)cc3C)nc12.Cl (stereo not drawn) [Example 42, 2-(4-Fluoro-2-Methylphenyl-Amino)-8-Methoxy-4-(1-Trifluoromethyl-1,2,3,4-Tetrahydroisoquinoline-2-Yl)Quinazoline Hydrochloride] | < 0.18 | 12.5 | 0.42 | 
COc1cccc2c(N3CCc4ccccc4C3CF)nc(Nc3ccc(F)cc3)nc12.Cl (stereo not drawn) [Example 43, 2-(4-Fluorophenylamino)-8-Methoxy-4-(1-Fluoromethyl-1,2,3,4-Tetrahydroisoquinoline-2-Yl)Quinazoline Hydrochloride] | < 0.97 | > 12.5 | 0.76 | 
COc1cccc2c(N3CCc4ccccc4C3CF)nc(Nc3ccc(F)cc3C)nc12.Cl (stereo not drawn) [Example 44, 2-(4-Fluoro-2-Methylphenyl-Amino)-8-Methoxy-4-(1-Fluoromethyl-1,2,3,4-Tetrahydroisoquinoline-2-Yl)Quinazoline Hydrochloride] | ~ 0.97 | ~12.5 | 0.75 | 
CCC1c2ccccc2CCN1c1nc(Nc2ccc(F)cc2)nc2c(OC)cccc12.Cl (stereo not drawn) [Example 45, 8-Methoxy-2-(4-Fluorophenyl-Amino)-4-(1-Ethyl-1,2,3,4-Tetrahydroisoquinoline-2-Yl) Quinazoline Hydrochloride] | 0.46 | 8.9 |  | -0.06
CCC1c2ccccc2CCN1c1nc(Nc2ccc(F)cc2C)nc2c(OC)cccc12.Cl (stereo not drawn) [Example 46, 8-Methoxy-2-(2-Methyl-4-Fluoro-Phenylamino)-4-(1-Ethyl-1,2,3,4-Tetrahydroisoquinoline-2-Yl)Quinazoline Hydrochloride] | 0.68 | ~6 | 0.11 | 
COc1cccc2c(N3CCc4ccccc4C3C3CC3)nc(Nc3ccc(F)cc3C)nc12.Cl (stereo not drawn) [Example 47, 2-(4-Fluoro-2-Methylphenyl-Amino)-8-Methoxy-4-(1-cyclopropyl-1,2,3,4-Tetrahydroisoquinoline-2-Yl)Quinazoline Hydrochloride] | 0.49 | ~25 | 0.33 | 
COc1cccc2c(N3Cc4ccccc4CC3C)nc(Nc3ccc(F)cc3)nc12.Cl (stereo not drawn) [Example 48, 2-(4-Fluorophenylamino)-8-Methoxy-4-(3-Methyl-1,2,3,4-Tetrahydroisoquinoline-2-Yl) Quinazoline Hydrochloride] | ~ 0.25 | ~25 | 0.76 | 
COc1cccc2c(N3Cc4ccccc4CC3C)nc(Nc3ccc(F)cc3C)nc12.Cl (stereo not drawn) [Example 49, 2-(4-Fluoro-2-Methylphenyl-Amino)-8-Methoxy-4-(3-Methyl-1,2,3,4-Tetrahydroisoquinoline-2-Yl)Quinazoline Hydrochloride] | > 0.25 | > 25 | 0.42 | 
COc1cccc2c(N3CCc4ccccc4C3(C)C)nc(Nc3ccc(F)cc3)nc12.Cl [Example 50, 2-(4-Fluorophenylamino)-8-Methoxy-4-(1,1-Dimethyl-1,2,3,4-Tetrahydroisoquinoline-2-Yl)Quinazoline Hydrochloride] | 1.22 | 6.05 | 0.82 | 
COc1cccc2c(N3CCc4ccccc4C3(C)C)nc(Nc3ccc(F)cc3C)nc12 [Example 51, 2-(4-Fluoro-2-Methylphenyl-1-Amino)-8-Methoxy-4-(1,1-Dimethyl-1,2,3,4-Tetrahydroisoquinoline-2-Yl)Quinazoline Hydrochloride] | 1.21 | 6.12 | 0.82 | 
COc1cccc2c(N3CCc4cccc(C)c4C3C)nc(Nc3ccc(F)cc3)nc12.Cl (stereo not drawn) [Example 52, 2-(4-Fluorophenylamino)-8-Methoxy-4-(1,8-Dimethyl-1,2,3,4-Tetrahydroisoquinoline-2-Yl)Quinazoline Hydrochloride] | 1.26 | 7.5 | 0.79 | 
COc1cccc2c(N3CCc4cccc(C)c4C3C)nc(Nc3ccc(F)cc3C)nc12.Cl (stereo not drawn) [Example 53, 2-(4-Fluoro-2-Methylphenyl-Amino)-8-Methoxy-4-(1,8-dimethyl-1,2,3,4-Tetrahydroisoquinoline-2-Yl)Quinazoline Hydrochloride] | 4.75 | 2 | 0.92 | 
